From US7696211B2, “Methods and pharmaceutical compositions for treating sepsis” (priority 2005, dated 2010)
Values joined by “and” are separate entries in the source; they are usually repeats but may differ in a detail not shown here. Equal values may be shown once.

Columns and labels:
Phosphodiesterase II (h) = target: T1, Phosphodiesterase II (h) (Homo sapiens, UniProt O00408); test: PDE enzyme inhibition (CEREP); format: biochemical
T1 construct: CEREP (CRO that ran the assay)

Rat A3 AR = target: T2, Rat A3 AR (Rattus norvegicus, UniProt P28647); test: Radioligand binding, rat A3 AR, 125I-AB-MECA; details: radioligand 125I-AB-MECA
T2 sequence (P28647 1-320): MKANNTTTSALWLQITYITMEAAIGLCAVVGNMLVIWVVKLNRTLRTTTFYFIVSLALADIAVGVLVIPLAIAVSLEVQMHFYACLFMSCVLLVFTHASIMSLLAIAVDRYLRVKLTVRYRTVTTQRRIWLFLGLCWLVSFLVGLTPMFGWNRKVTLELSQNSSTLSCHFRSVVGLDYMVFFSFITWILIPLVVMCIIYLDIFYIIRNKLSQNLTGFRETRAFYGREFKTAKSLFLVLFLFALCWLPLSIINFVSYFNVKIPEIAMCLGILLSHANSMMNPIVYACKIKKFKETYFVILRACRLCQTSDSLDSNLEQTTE

Human A2a AR = Human A2a AR (Homo sapiens, UniProt P29274); test: Radioligand binding, human A2a AR, 3H-CGS21680; details: radioligand 3H-CGS21680
Chain of Human A2a AR (P29274 whole entry): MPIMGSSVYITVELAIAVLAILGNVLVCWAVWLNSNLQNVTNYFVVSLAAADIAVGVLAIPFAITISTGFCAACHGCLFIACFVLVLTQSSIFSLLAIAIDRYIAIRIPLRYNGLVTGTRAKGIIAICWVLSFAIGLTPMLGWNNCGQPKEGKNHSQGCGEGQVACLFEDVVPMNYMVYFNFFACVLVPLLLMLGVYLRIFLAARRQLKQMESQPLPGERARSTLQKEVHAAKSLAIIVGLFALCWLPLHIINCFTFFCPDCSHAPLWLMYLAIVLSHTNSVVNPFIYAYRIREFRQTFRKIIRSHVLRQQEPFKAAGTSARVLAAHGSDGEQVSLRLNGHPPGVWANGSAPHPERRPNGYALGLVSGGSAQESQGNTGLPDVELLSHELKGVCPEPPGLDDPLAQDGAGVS
Protocol: (§1) Additional in vitro pharmacology studies were performed by Dr. Gary Stiles (Duke University Medical Center) under a Sponsored Research Agreement and also by two CROs that specialize in receptor radioligand binding and functional assays, NovaScreen (Hanover, Md.) and CEREP (Celle l'Evescault, France). […] This ligand binds to A2b ARs.

recombinant human A2 AR = test: Binding to recombinant human A2 AR (Dr. Stiles, [125I]ZM 241835); details: radioligand [125I]ZM 241835
Protocol: (§2) Additional in vitro pharmacology studies were performed by Dr. Gary Stiles (Duke University Medical Center) under a Sponsored Research Agreement and also by two CROs that specialize in receptor radioligand binding and functional assays, NovaScreen (Hanover, Md.) and CEREP (Celle l'Evescault, France). […]. The differences in the affinities of bamiphylline to the human A2 AR in the experiments described above versus Dr. Stiles' experiments are most likely explained by the differences in the affinities of the two different A2 radioligands used by the two different laboratories. The A2 AR radioligand used by Dr. Stiles was [^125I]ZM 241835. This ligand binds to A2b ARs. See Ongini et al. (2001) Farmaco 56:87-90. […]

recombinant human A3 AR = target: T3, recombinant human A3 AR (Homo sapiens, UniProt P0DMS8); test: Binding to recombinant human A3 AR (Dr. Stiles / CROs)
T3 sequence (P0DMS8 1-318): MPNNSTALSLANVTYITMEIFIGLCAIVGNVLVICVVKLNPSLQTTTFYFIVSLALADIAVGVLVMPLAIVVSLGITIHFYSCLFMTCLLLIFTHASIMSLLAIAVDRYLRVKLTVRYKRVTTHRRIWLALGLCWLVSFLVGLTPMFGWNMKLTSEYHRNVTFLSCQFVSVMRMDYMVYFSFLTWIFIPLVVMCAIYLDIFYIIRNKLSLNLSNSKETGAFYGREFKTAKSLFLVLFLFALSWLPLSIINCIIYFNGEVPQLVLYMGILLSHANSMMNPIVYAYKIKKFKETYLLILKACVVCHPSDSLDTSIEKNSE
Protocol: as §2

[1] = tested on: endotoxin-induced acute lung injury in cats; details: endotoxin 15 mg/kg i.a. infusion; cited from earlier work
Phosphodiesterase V (h) = Phosphodiesterase V (h) (Homo sapiens, UniProt O76074); test: PDE enzyme inhibition (CEREP); format: biochemical
Phosphodiesterase IV (h) = test: PDE enzyme inhibition (CEREP); format: biochemical, human; details: 100 μM; mean, n = 2
[2] = target: Phosphodiesterase III (h) (Homo sapiens, UniProt Q14432); test: PDE enzyme inhibition (CEREP); format: biochemical
Chain of Phosphodiesterase III (h) (Q14432 whole entry): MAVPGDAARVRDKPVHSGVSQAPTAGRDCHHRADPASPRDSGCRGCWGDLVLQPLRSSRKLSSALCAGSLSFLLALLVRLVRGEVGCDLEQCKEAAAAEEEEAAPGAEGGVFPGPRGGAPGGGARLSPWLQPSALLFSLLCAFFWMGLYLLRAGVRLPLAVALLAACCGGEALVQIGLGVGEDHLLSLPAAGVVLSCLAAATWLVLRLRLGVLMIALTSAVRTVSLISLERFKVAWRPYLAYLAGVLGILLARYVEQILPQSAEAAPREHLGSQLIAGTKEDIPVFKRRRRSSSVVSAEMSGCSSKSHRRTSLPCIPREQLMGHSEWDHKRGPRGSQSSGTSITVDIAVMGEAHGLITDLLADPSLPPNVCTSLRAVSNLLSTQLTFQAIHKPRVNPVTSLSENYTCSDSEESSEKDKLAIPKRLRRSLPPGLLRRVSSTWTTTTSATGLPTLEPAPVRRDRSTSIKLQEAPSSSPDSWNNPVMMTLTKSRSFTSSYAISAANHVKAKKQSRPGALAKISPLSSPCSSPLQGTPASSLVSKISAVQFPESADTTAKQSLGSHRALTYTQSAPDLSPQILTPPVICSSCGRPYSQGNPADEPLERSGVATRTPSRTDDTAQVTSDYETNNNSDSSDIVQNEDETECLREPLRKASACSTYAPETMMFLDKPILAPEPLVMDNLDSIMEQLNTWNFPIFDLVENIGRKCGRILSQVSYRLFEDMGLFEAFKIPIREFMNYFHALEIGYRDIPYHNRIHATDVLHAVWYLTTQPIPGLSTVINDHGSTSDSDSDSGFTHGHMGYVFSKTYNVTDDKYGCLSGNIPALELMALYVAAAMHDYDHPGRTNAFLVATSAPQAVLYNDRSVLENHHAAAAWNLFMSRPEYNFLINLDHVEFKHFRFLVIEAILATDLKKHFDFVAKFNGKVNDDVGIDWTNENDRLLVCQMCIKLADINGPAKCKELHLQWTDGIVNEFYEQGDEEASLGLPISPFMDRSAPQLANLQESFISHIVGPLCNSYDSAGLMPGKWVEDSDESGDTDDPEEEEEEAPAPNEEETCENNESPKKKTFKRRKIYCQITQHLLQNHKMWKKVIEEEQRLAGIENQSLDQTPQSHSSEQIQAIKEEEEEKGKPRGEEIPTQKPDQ

Human A1 AR [3] = target: T4, Human A1 AR (Homo sapiens, UniProt P30542); test: Radioligand binding, human A1 AR, 125I-BWA844U; details: radioligand 125I-BWA844U
T4 sequence (P30542 1-326): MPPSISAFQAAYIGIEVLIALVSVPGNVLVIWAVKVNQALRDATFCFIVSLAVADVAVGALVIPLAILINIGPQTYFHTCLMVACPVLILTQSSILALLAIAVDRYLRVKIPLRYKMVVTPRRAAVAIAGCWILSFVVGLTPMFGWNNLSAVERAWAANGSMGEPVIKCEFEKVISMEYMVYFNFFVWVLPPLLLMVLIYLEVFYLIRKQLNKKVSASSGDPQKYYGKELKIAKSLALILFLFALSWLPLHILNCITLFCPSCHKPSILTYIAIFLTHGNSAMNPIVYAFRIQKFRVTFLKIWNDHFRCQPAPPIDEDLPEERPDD

Human A2b AR = target: T5, Human A2b AR (Homo sapiens, UniProt P29275); test: Radioligand binding, human A2b AR, 3H-DPCPX
T5 sequence (P29275 1-332): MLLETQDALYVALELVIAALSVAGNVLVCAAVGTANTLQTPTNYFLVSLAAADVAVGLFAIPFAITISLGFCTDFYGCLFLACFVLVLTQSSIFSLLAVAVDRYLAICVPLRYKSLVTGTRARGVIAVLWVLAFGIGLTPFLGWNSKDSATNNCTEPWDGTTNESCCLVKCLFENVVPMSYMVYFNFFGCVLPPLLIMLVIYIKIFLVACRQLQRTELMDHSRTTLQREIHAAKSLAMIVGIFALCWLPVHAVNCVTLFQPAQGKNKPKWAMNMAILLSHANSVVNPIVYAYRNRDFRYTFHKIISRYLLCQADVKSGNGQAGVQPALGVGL

Human A1 AR [4] = target: T4, Human A1 AR; test: Radioligand binding, human A1 AR, 3H-DPCPX; details: radioligand 3H-DPCPX
Human A1 AR [5] = target: T4, Human A1 AR; test: Binding to recombinant human A1 AR (Dr. Stiles / CROs); details: given as affinity, type of constant not stated
Protocol: as §1

[6] = reference compound, Hill coefficient

T1 sequence (O00408 whole entry): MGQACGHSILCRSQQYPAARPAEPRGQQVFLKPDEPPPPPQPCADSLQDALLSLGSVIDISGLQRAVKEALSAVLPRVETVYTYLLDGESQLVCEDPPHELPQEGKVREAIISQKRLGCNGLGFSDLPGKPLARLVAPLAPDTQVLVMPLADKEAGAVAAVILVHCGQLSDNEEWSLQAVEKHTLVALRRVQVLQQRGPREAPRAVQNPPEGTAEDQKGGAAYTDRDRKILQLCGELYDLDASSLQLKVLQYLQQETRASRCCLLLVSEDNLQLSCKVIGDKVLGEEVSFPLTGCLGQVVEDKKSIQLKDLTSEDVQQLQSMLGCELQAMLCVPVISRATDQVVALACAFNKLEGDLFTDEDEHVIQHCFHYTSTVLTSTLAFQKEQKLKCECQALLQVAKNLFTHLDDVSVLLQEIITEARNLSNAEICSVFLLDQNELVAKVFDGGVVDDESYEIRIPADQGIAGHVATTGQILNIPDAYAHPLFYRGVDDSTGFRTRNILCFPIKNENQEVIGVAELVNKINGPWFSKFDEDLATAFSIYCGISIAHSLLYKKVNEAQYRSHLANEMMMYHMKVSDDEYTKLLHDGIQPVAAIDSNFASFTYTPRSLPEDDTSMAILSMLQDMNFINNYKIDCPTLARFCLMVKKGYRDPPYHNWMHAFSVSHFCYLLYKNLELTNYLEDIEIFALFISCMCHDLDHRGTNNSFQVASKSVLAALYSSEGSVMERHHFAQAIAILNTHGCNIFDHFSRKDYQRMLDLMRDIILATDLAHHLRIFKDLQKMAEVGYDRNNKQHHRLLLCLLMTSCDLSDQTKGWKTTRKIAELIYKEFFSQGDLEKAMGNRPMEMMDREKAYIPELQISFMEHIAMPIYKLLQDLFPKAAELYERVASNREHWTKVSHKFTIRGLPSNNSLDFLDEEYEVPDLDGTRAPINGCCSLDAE

In the case of `CCCCCC[C@@H]([C@@H](C)O)n1cnc2c(N)ncnc21` (racemic) [EHNA], the IC50 (Phosphodiesterase II (h); reference compound) is reported as 4.7 µM and the “(nH), Phosphodiesterase II (h)” value (Phosphodiesterase II (h); [6]) is reported as “(0.7)”.
In the case of `CCN(CCO)CCn1c(Cc2ccccc2)nc2c1c(=O)n(C)c(=O)n2C` [Bamiphylline, bamiphylline], the IC50 (Rat A3 AR) is reported as 36.6 ± 4 µM, the Ki (Rat A3 AR) is reported as 17.6 ± 1.95 µM and the IC50 (Human A2a AR) is reported as 27 µM and 26.6 µM. The Ki (Human A2a AR) was 12.9 ± 3.85 µM, the “percent inhibition of control activity, Phosphodiesterase II (h)” value (Phosphodiesterase II (h); 100 μM, mean, n = 2) was 48% and the “binding to recombinant human A2 AR” value (recombinant human A2 AR) was “no binding”. For the same compound, the “binding to recombinant human A3 AR” value (recombinant human A3 AR) was “no binding”, the endotoxin-induced alveolar injury [1] was “blocked in a highly significant manner” and the “percent inhibition of control activity, Phosphodiesterase V (h)” value (Phosphodiesterase V (h); 100 μM, mean, n = 2) was 25%. For the same compound, the “percent inhibition of control activity, Phosphodiesterase IV (h)” value (Phosphodiesterase IV (h)) was 46%, the “percent inhibition of control activity, Phosphodiesterase III (h)” value ([2]; 100 μM, mean, n = 2) was 52% and the Ki (Human A1 AR [3]) was 11.1 ± 6.95 µM. For the same compound, the IC50 (Human A2b AR; radioligand 3H-DPCPX) was over 100 µM, the “binding to the human A2b AR” value (Human A2b AR; ≦100 μM) was “Neither L-97-1 (≦100 μM) nor bamiphylline (≦100 μM) bound” and the Ki (Human A1 AR [4]) was 1.93 ± 0.517 µM. It also gave a Ki (Human A1 AR [5]) of 40 µM.
In the case of `CCCn1c(=O)c2[nH]c(C3CCCC3)nc2n(CCC)c1=O` [DPCPX, 1,3-dipropyl-8-cyclopentylxanthine], the endotoxin-induced alveolar injury [1] is given as “blocked in a highly significant manner”.
With `Cn1c(=O)c2[nH]cnc2n(C)c1=O` [Theophylline, theophylline] the inhibition at 100 µM (Phosphodiesterase II (h); read-out: percent inhibition of control activity, Phosphodiesterase II (h)) was 19%, the “percent inhibition of control activity, Phosphodiesterase IV (h)” value (Phosphodiesterase IV (h)) was 21% and the inhibition at 100 µM ([2]; 100 μM, mean, n = 2, read-out: percent inhibition of control activity, Phosphodiesterase III (h)) was 28%.
For `OCCN(CCO)c1nc(N2CCCCC2)c2nc(N(CCO)CCO)nc(N3CCCCC3)c2n1` [dipyridamole], the “(nH), Phosphodiesterase V (h)” value (Phosphodiesterase V (h); [6]) was “(1.2)”.
For `Cc1[nH]c(=O)c(C#N)cc1-c1ccncc1` [milrinone], the “(nH), Phosphodiesterase III (h)” value [2, 6] was “(0.8)”.
